The target in assay [1] is T1, GenB2 (Micromonospora echinospora, UniProt Q70KE6).
T1 construct: gene gacE; full length in pET28a, E. coli BL21(DE3), nickel IMAC and gel filtration; plasmid carries an extra 57 nucleotides at the 5' end; homodimer
The assay is described as follows: X-ray crystal structure of the holo enzyme. The format is binding. Conditions: copurified; coenzyme site at the dimer interface, no Schiff base with Lys227; pH 6.0.

Assay [2] concerns the target GenB2 (Micromonospora echinospora). The assay is described as follows: crystal structure; holo GenB2 (PMP) and its complexes with G418 or gentamicin X2; space group C222(1), a single protomer in the asymmetric unit, dimer obtained by a symmetry operation; 0.1 M PIPES pH 6.0, 1 M NaCl, 29% PEG 4000, 30% 6-aminohexanoic acid, 18 °C.
Assay [3] has the same target. Put plainly: not stated; GenB2 in solution; the method is not told.
Assay [4] concerns the target T1, GenB2. Put plainly: epimerisation to gentamicin C2a, HPLC. Format: biochemical. Conditions: 200 μM substrate, 20 μM enzyme, 50 mM Tris-HCl pH 8.0, 30 °C, overnight.
Assay [5] deals with T1, GenB2. The assay is described as follows: epimerisation to gentamicin C2, HPLC. The format is biochemical. Conditions: 200 μM substrate, 20 μM enzyme, 50 mM Tris-HCl pH 8.0, 30 °C, overnight.
Assay [6] concerns the target T1, GenB2. The assay is described as follows: X-ray crystal structure of the complex. To be noted: ternary complex with PMP; substrate-binding site; at least 100 mM ligand, pH 6.0, 18 °C.

A word on the stoichiometry N: it is the number of molecules, sites or subunits per partner or assembly.

T1 sequence (Q70KE6 entry or part of it): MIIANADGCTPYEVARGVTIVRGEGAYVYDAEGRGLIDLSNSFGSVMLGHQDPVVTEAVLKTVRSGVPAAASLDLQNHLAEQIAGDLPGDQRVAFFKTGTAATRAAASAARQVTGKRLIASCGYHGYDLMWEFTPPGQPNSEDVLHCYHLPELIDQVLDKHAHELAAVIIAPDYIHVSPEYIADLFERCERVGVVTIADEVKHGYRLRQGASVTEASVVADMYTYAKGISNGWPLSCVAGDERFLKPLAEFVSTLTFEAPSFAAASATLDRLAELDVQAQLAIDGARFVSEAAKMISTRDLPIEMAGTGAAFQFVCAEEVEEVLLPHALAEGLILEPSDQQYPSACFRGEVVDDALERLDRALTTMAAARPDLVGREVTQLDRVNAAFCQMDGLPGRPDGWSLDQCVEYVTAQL

For `Cc1ncc(COP(=O)(O)O)c(CN)c1O` [pyridoxamine 5-phosphate], the “X-ray crystal structure of the holo enzyme” value in assay [1] is reported as “Each dimer of GenB2 has two PMP molecules bound at the interfaces between the protomers”.

Take GenB2 (enzyme): the stoichiometry N in assay [2] and in assay [3] was 2 throughout.

`CN[C@@H]1[C@@H](O)[C@@H](O[C@@H]2[C@@H](O)[C@H](O[C@H]3O[C@H]([C@@H](C)N)CC[C@H]3N)[C@@H](N)C[C@H]2N)OC[C@]1(C)O` [gentamicin C2]: in assay [4], the “epimerisation to gentamicin C2a, HPLC” value is given as “conversion of gentamicin C2 into C2a or C2a into C2”.

For `CN[C@@H]1[C@@H](O)[C@@H](O[C@@H]2[C@@H](O)[C@H](O[C@H]3O[C@H]([C@H](C)N)CC[C@H]3N)[C@@H](N)C[C@H]2N)OC[C@]1(C)O` [gentamicin C2a], in assay [5], the “epimerisation to gentamicin C2, HPLC” value is reported as “wild-type GenB2 was able to perform a high ratio of conversion”.

`CN[C@@H]1[C@@H](O)[C@@H](O[C@@H]2[C@@H](O)[C@H](O[C@H]3O[C@H](CO)[C@@H](O)[C@H](O)[C@H]3N)[C@@H](N)C[C@H]2N)OC[C@]1(C)O` (stereo in doubt) [gentamicin X2]: the “X-ray crystal structure of the complex” value in assay [6] is “we have obtained the structure of GenB2 in complex with gentamicin G418 and gentamicin X2”.

(Values after publication PMC11420954, “Structural and Functional Basis of GenB2 Isomerase Activity from Gentamicin Biosynthesis” (ACS Chemical Biology, 2024).)
